Data published in the supplement of paper PMC6045584.
± gives the standard deviation of the averaged measurements.

Key:
CRIZOTINIB = compound: C[C@@H](Oc1cc(-c2cnn(C3CCNCC3)c2)cnc1N)c1c(Cl)ccc(F)c1Cl [CRIZOTINIB]; test: surviving fraction relative to DMSO-only wells; higher = less growth inhibition; settings: exposure time: 5 days
Outline: (§1)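 In 384-well plates, 250–500 log-phase tumour cells per well were given 24 hours before five days of continuous exposure to inhibitors at 0.5, 1, 5, 10, 50, 100, 500 and 1000 nM. Surviving fraction is luminescence from CellTiter-Glo, normalised to the median of wells containing DMSO alone. Reading took place after 10 minutes at room temperature.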

TEMOZOLOMIDE = compound: Cn1nnc2c(C(N)=O)ncn2c1=O [TEMOZOLOMIDE]; test: as above; settings: exposure time: 5 days
Outline: as §1

Test System | surviving fraction (CRIZOTINIB; 0.5 nM) | surviving fraction (CRIZOTINIB; 1 nM) | surviving fraction (CRIZOTINIB; 5 nM) | surviving fraction (CRIZOTINIB; 10 nM) | surviving fraction (CRIZOTINIB; 50 nM) | surviving fraction (CRIZOTINIB; 500 nM) | surviving fraction (CRIZOTINIB; 1000 nM) | surviving fraction (TEMOZOLOMIDE; 0.5 nM) | surviving fraction (TEMOZOLOMIDE; 1 nM) | surviving fraction (TEMOZOLOMIDE; 5 nM) | surviving fraction (TEMOZOLOMIDE; 10 nM) | surviving fraction (TEMOZOLOMIDE; 50 nM) | surviving fraction (TEMOZOLOMIDE; 100 nM) | surviving fraction (TEMOZOLOMIDE; 500 nM) | surviving fraction (TEMOZOLOMIDE; 1000 nM) | surviving fraction (CRIZOTINIB; 100 nM)
S68 BREAST | 0.895 ± 0.078 | 1.16 ± 0.3 | 1.04 ± 0.55 | 0.981 ± 0.1 | 1.17 ± 0.26 | 0.417 ± 0.11 | 0.361 ± 0.049 | 0.996 ± 0.22 | 1.07 ± 0.034 | 1.08 ± 0.18 | 1.06 ± 0.12 | 1.04 ± 0.044 | 1.09 ± 0.25 | 1.05 ± 0.078 | 1.29 ± 0.24 | –
CHLA90 AUTONOMIC GANGLIA | – | 1 ± 0.025 | 0.951 ± 0.016 | 0.929 ± 0.056 | – | 0.755 ± 0.14 | 0.476 ± 0.096 | 0.928 ± 0.039 | 0.975 ± 0.047 | 0.941 ± 0.053 | 0.96 ± 0.023 | 0.963 ± 0.068 | 1.03 ± 0.055 | 1.02 ± 0.087 | 1.03 ± 0.098 | –
CASKI CERVIX | 0.955 ± 0.029 | 1 ± 0.067 | – | 1.04 ± 0.06 | 0.999 ± 0.053 | 0.382 ± 0.063 | 0.383 ± 0.029 | 0.888 ± 0.013 | 0.88 ± 0.049 | 0.965 ± 0.044 | 1.01 ± 0.12 | 1 ± 0.023 | 1.04 ± 0.05 | 0.929 ± 0.072 | 1 ± 0.074 | 0.984 ± 0.052
HT1080 SOFT TISSUE | 1.07 ± 0.038 | 1.07 ± 0.028 | 1.07 ± 0.016 | 1.06 ± 0.017 | 1.04 ± 0.062 | 1.02 ± 0.042 | 0.798 ± 0.064 | 1.04 ± 0.039 | 1.03 ± 0.014 | 1.03 ± 0.026 | 1.03 ± 0.022 | 1.03 ± 0.026 | 1.04 ± 0.014 | 1.04 ± 0.017 | 1.03 ± 0.023 | 1.07 ± 0.052
KPD BONE | 0.936 ± 0.05 | 1.01 ± 0.038 | – | 1.16 ± 0.03 | – | – | 0.245 ± 0.011 | 0.925 ± 0.022 | 0.955 ± 0.091 | 1.11 ± 0.079 | 1.01 ± 0.024 | 1.06 ± 0.088 | 1.074 ± 0.0076 | 0.983 ± 0.1 | 0.977 ± 0.043 | –
HCC1954 BREAST | 1.16 ± 0.14 | 1.25 ± 0.11 | – | 1.55 ± 0.21 | 1.03 ± 0.18 | 0.831 ± 0.082 | 0.689 ± 0.12 | 1.11 ± 0.19 | 0.956 ± 0.25 | 1.198 ± 0.0064 | 1.2 ± 0.082 | 1.16 ± 0.12 | 0.989 ± 0.13 | 1.04 ± 0.24 | 0.976 ± 0.023 | 0.987 ± 0.06
MDAMB468 BREAST | 1.08 ± 0.018 | 1.12 ± 0.072 | 1.11 ± 0.023 | 1.1 ± 0.094 | 1.16 ± 0.029 | 0.666 ± 0.039 | 0.276 ± 0.007 | 0.983 ± 0.086 | 1.13 ± 0.045 | 1.114 ± 0.0027 | 1.17 ± 0.075 | 1.09 ± 0.07 | 1.15 ± 0.045 | 1.03 ± 0.1 | 1.12 ± 0.091 | 1.06 ± 0.015
SNU475 LIVER | 1.03 ± 0.029 | 1.08 ± 0.012 | 1.08 ± 0.062 | 1.1 ± 0.027 | 1.01 ± 0.016 | 0.948 ± 0.052 | 0.809 ± 0.024 | 1.004 ± 0.0081 | 1.01 ± 0.025 | 1.01 ± 0.051 | 1.04 ± 0.036 | 1.01 ± 0.034 | 1.06 ± 0.047 | 1.05 ± 0.053 | 1.03 ± 0.022 | 1.02 ± 0.03
VCAP PROSTATE | 1.09 ± 0.13 | 0.987 ± 0.1 | 1.13 ± 0.2 | 1.09 ± 0.02 | 1.02 ± 0.15 | 0.504 ± 0.013 | 0.36 ± 0.04 | 0.913 ± 0.1 | 1.09 ± 0.089 | 1.04 ± 0.13 | 1.04 ± 0.082 | 0.967 ± 0.051 | 1.1 ± 0.09 | 0.991 ± 0.039 | 1.08 ± 0.093 | –
NOS1 BONE | 1.03 ± 0.12 | 1.13 ± 0.07 | 1.11 ± 0.044 | 1.23 ± 0.2 | 1.11 ± 0.043 | 0.69 ± 0.036 | 0.484 ± 0.051 | 0.881 ± 0.071 | 1.01 ± 0.077 | 1.16 ± 0.11 | 1.16 ± 0.049 | 1.25 ± 0.099 | 1.15 ± 0.067 | 1.01 ± 0.076 | 1.06 ± 0.14 | 1.69 ± 0.86
H23 LUNG | 1.04 ± 0.058 | 1.02 ± 0.025 | 1.07 ± 0.04 | 1.08 ± 0.02 | 1.06 ± 0.062 | 1.11 ± 0.072 | – | 0.987 ± 0.04 | 1.01 ± 0.031 | 1.01 ± 0.053 | 1.06 ± 0.044 | 0.997 ± 0.025 | 1.01 ± 0.022 | 0.966 ± 0.066 | 1.02 ± 0.051 | 1.11 ± 0.059
SUM44 BREAST | 1.28 ± 0.41 | 1.26 ± 0.39 | – | 1.25 ± 0.42 | 1.33 ± 0.42 | 1.25 ± 0.46 | 1.17 ± 0.43 | 1.16 ± 0.26 | 1.19 ± 0.22 | 1.24 ± 0.23 | 1.33 ± 0.5 | 1.19 ± 0.21 | 1.32 ± 0.33 | 1.3 ± 0.28 | 1.3 ± 0.26 | 1.36 ± 0.47
HCT15 LARGE INTESTINE | 1.05 ± 0.083 | 1.1 ± 0.1 | 1.14 ± 0.044 | – | 1.18 ± 0.042 | 1.09 ± 0.049 | 0.265 ± 0.022 | 1.014 ± 0.0029 | 1.029 ± 0.0053 | 0.999 ± 0.055 | 1.02 ± 0.053 | 1.02 ± 0.045 | 1.08 ± 0.05 | 1.04 ± 0.063 | 1.09 ± 0.062 | 1.17 ± 0.04
HU09 BONE | 0.86 ± 0.084 | 0.956 ± 0.13 | 1.13 ± 0.099 | 1.14 ± 0.06 | 1.02 ± 0.044 | 0.511 ± 0.063 | 0.233 ± 0.048 | 0.817 ± 0.057 | 1.01 ± 0.042 | 1.08 ± 0.11 | 1.1 ± 0.014 | 0.964 ± 0.14 | 1.12 ± 0.051 | 0.966 ± 0.11 | 0.961 ± 0.076 | 1.02 ± 0.042
SUM149 BREAST | 1.08 ± 0.024 | 1.05 ± 0.075 | – | 0.96 ± 0.033 | 1.01 ± 0.13 | 0.817 ± 0.07 | 0.51 ± 0.072 | 1.06 ± 0.11 | 1.1 ± 0.067 | 1.1 ± 0.029 | 1.1 ± 0.12 | 1.01 ± 0.056 | 1.16 ± 0.12 | 1.1 ± 0.096 | 1.03 ± 0.022 | –
A549 LUNG | 1.07 ± 0.027 | 1.07 ± 0.015 | – | – | 1.09 ± 0.023 | 1.09 ± 0.043 | 0.649 ± 0.07 | 1.03 ± 0.0082 | 1.03 ± 0.04 | 1.03 ± 0.037 | 1.06 ± 0.013 | 1.03 ± 0.024 | 1.04 ± 0.032 | 1.04 ± 0.044 | 1.06 ± 0.047 | 1.1 ± 0.025
LM7 BONE | – | 1.01 ± 0.043 | 1.07 ± 0.067 | – | 1.04 ± 0.051 | 0.591 ± 0.046 | 0.221 ± 0.0062 | 0.916 ± 0.081 | 0.989 ± 0.086 | 1.04 ± 0.085 | 1.05 ± 0.049 | 1.05 ± 0.077 | 1.09 ± 0.022 | 0.968 ± 0.065 | 0.967 ± 0.04 | 1.12 ± 0.07
HCC1395 BREAST | 1.06 ± 0.18 | 1.28 ± 0.025 | 1.33 ± 0.061 | 1.44 ± 0.15 | 1.29 ± 0.18 | 1.21 ± 0.14 | 1.21 ± 0.061 | 1.03 ± 0.034 | 1.1 ± 0.081 | 1.1 ± 0.11 | 1.02 ± 0.078 | 1.04 ± 0.044 | 1.01 ± 0.14 | 0.922 ± 0.14 | 1.06 ± 0.03 | 1.28 ± 0.018
SG31 HEADNECK | – | 1.2 ± 0.13 | 1.01 ± 0.12 | 1.22 ± 0.24 | 1.17 ± 0.26 | 0.856 ± 0.073 | 0.6 ± 0.058 | 0.991 ± 0.11 | 1.07 ± 0.18 | 1.01 ± 0.15 | 1.04 ± 0.013 | 0.922 ± 0.062 | 1.17 ± 0.52 | 1.17 ± 0.24 | 1.12 ± 0.12 | 1.19 ± 0.18
SKBR3 BREAST | 1.12 ± 0.084 | 1.1 ± 0.046 | 1.09 ± 0.03 | 1.14 ± 0.25 | – | 1 ± 0.12 | – | 1.1 ± 0.052 | 1.11 ± 0.058 | 1.06 ± 0.082 | 1.06 ± 0.069 | 0.983 ± 0.061 | 1.07 ± 0.13 | 1.13 ± 0.04 | 1.07 ± 0.055 | 1.03 ± 0.046
MDAMB361 BREAST | 0.815 ± 0.053 | 0.898 ± 0.094 | 0.881 ± 0.035 | 0.848 ± 0.079 | 0.828 ± 0.07 | 0.882 ± 0.067 | 1.03 ± 0.095 | 0.914 ± 0.14 | 0.93 ± 0.017 | 0.917 ± 0.15 | 0.889 ± 0.1 | 0.983 ± 0.16 | 0.925 ± 0.037 | 0.945 ± 0.1 | 0.908 ± 0.042 | –
ASKA SYNOVIAL | – | 0.942 ± 0.039 | 0.848 ± 0.05 | 0.7377 ± 0.007 | 0.539 ± 0.043 | 0.168 ± 0.0038 | 0.205 ± 0.0093 | 1.03 ± 0.078 | 1.03 ± 0.066 | 1.12 ± 0.044 | 1.22 ± 0.12 | 1.14 ± 0.082 | 1.24 ± 0.02 | 1.15 ± 0.055 | 1.2 ± 0.058 | 0.405 ± 0.016
